Values of other authors in US4606909A, “Pharmaceutical multiple-units formulation” (priority 1981, dated 1986).

Details: ambient temperature

SMILES	parts by volume of water required to dissolve 1 part by weight of the substance
CC(=O)S[C@@H]1CC2=CC(=O)CC[C@]2(C)[C@H]2CC[C@@]3(C)[C@@H](CC[C@@]34CCC(=O)O4)[C@H]12 [spironolactone]	more than 1000 parts by volume of water
C[C@]12CC[C@H]3[C@@H](CCC4=CC(=O)CC[C@@]43C)[C@@H]1CC[C@@H]2O [testosterone]	more than 1000 parts by volume of water
CCCCNC(=O)NS(=O)(=O)c1ccc(C)cc1 [tolbutamide]	more than 1000 parts by volume of water
